Laboratory results reported in patent publication US11618738B2, “Compound and application thereof in treating inflammation or inflammation-related diseases” (SICHUAN CENTER FOR TRANSLATIONAL MEDICINE OF TRADITIONAL …, priority 2017, dated 2023).
Read-outs that look alike come from different tables or passages of the source.

Key:
hot plate pain in mice = test: Hot plate pain threshold in mice; assay type: in vivo; settings: for Percentage increase in pain threshold (%): mean ± SD
Method: The hot plate method uses a certain intensity of warm heat to stimulate mice to produce pain reaction. This experiment observes the analgesic effect of UTLOH series compounds.
Female SPF-grade Kunming mice (18-22 g/mouse) were put in a hot plate apparatus at a temperature of 55±0.5° C., and the pain threshold of the mice was measured. The measurement was performed twice, and the measurement was performed every 5 minutes. Taking the mouse licking hind feet as the observation index. The mice with pain response within 30 s were selected as experimental animals. The pre-selected qualified mice were randomly grouped according to their body weight. The blank group was intraperitoneally injected with 0.2 ml/10 g body weight of normal saline, and the other groups were intraperitoneally injected with corresponding drugs. The pain threshold was measured 30 and 60 minutes after the administration. If the mouse had no pain within 60 seconds, it was taken out immediately and calculated at 60 seconds.

PGE2 induced by LPS = test: Inhibition of LPS-induced PGE2 in RAW 264.7 cells (ELISA); assay type: cell-based, mice
Method: (§1) This example is taken from a previous publication by Song et al.^[1]. In brief, mice RAW 264.7 cells were treated with increasing doses of each test compound at 37° C. for 1 hour. Thereafter, the cells were attacked with 20 μL/well of LPS (equivalent to a final concentration of 100 ng/mL). The cells were further incubated overnight at 37° C. A commercial ELISA assay kit obtained from R&D Systems (Minneapolis, Minn.) was used to determine the level of PGE2 in the supernatant, and three parallel experiments were performed. The optical density of each well was measured using a BioTek Epoch microplate reader (Winooski, Vt.) set to 450 nm. The NO study was performed in a similar manner, but Greiss reagent was used to monitor the level of NO, and the results were read at 550 nm.

NO induced by LPS = test: Inhibition of LPS-induced NO in RAW 264.7 cells (Greiss reagent); assay type: cell-based, mice; settings: for IC50: Mus musculus, RAW264.7
Source text: Nitric oxide (NO) is a signaling molecule that plays a key role in the pathogenesis of inflammation. Under abnormal conditions, NO is a pro-inflammatory mediator that causes inflammation due to its overproduction. Therefore, the regulation of elevated NO levels by stimulants (such as LPS) has been widely used as a screening method to identify anti-inflammatory drugs. Since NO is oxidized into nitrite and nitrate, the determination of total NO2^−/NO3^− is a conventional method for determining NO levels, and Griess reagent is usually used in this type of experiment.
as §1

[1] = system: xylene-induced ear swelling in mice; test: Xylene-induced ear swelling in mice; assay type: in vivo; settings: for Swelling rate (%): 20 minutes after xylene, mean ± SD; for ear swelling rate versus normal group (in words): the three dose groups (6.25, 12.5, 25 mg/kg)
Source text: Xylene applied to the ears of mice can cause acute inflammatory swelling of the ears of the mice. The anti-inflammatory effects of the tested drugs were observed by the degree of swelling of the ears of the mice after the inflammation.
Taking Kunming mice, SPF grade, half male and half […] (18-22 g/mouse) and randomly grouping them according to body weight. The normal control group was given 0.5% CMC-Na suspension by gavage administration, and the other groups were given corresponding drugs (0.2 ml/10 g) for 3 consecutive days, once a day. 0.5 h after the last administration, 0.02 ml of xylene was applied to the right auricle of each group of mice, and the left side was not applied as a control, establishing a mouse ear swelling model. 20 minutes after the inflammation, the mice were killed by cervical dislocation. Both ears were cut along the baseline of the auricle, and the discs on the same part of the left and right ears were punched out with a punch (6 mm of diameter) and weighed.

[2] = system: 10% egg white-induced foot swelling in rats; test: 10% egg white-induced foot swelling in rats; assay type: in vivo; settings: for Foot swelling: mean ± SD
Source text: Injecting 10% egg white into rat paws can cause early acute inflammation such as redness, heat, swelling, and pain in rat paws. In this experiment, the anti-inflammatory effects of UTLOH series compounds were observed by the degree of swelling of the paws of rats after inflammation.
SPF grade SD rats, half female and half male (100-120 g/mouse) were randomly grouped according to body weight. Each group was given the corresponding drugs by gavage, once a day, for 3 consecutive days, with a gavage volume of 1 ml/100 g. Before the experiment, the ankle joint of the right hind foot of each group of rats was marked, and the foot volume of each group of rats was measured twice with a rat foot volume meter, and the average of the two times was taken as the […]. 30 minutes after the last administration, the rats in each group were given a subcutaneous needle in the right hind paw, and injected with 10% fresh egg white solution 0.1 ml/mouse to cause inflammation, establishing a rat model of paw swelling. The post-inflamed foot volume in mice was measured twice at 1 h, 2 h, 3 h, and 4 h after inflammation, and the average of the two times was taken as the post-inflamed foot volume. The normal group was given 1 ml/100 g volume of 0.5% CMC-Na solution by gavage according to body weight.

[3] = system: writhing response of mice with acetic acid; test: Writhing response of mice induced by intraperitoneal glacial acetic acid; assay type: in vivo; settings: for Writhing reaction inhibition percentage (%): mean ± SD; for writhing response in mice induced by acetic acid (in words): the four dose groups (25-200 mg/kg)
Method: After glacial acetic acid is injected into the abdominal cavity of mice, it can cause inflammatory pain and cause writhing reaction in mice. In this experiment, the analgesic effects of UTLOH compounds were observed by the number of writhing times in mice after intraperitoneal injection of glacial acetic acid.
Taking 100 KM mice, SPF grade, half male and half […] (18-22 g/mouse), and randomly grouping them according to their body weight. Except that the blank control group was given 0.5% CMC-Na suspension by gavage administration, the other groups were given the corresponding drugs by gavage for 3 continuous days, once a day, with a gavage volume of 0.2 ml/10 g. 30 minutes after the administration on the 3rd day, each group of mice was intraperitoneally injected with 0.6% glacial acetic acid, 0.1 ml/10 g, to create writhing reaction model in mice.

[4] = 25 mg/kg intraperitoneal, 30 min after administration
[5] = 25 mg/kg intraperitoneal, 60 min after administration
[6] = 50 mg/kg intraperitoneal, 30 min after administration
[7] = 100 mg/kg intraperitoneal, 30 min after administration
[8] = 100 mg/kg intraperitoneal, 60 min after administration
[9] = 200 mg/kg intraperitoneal, 30 min after administration
[10] = 200 mg/kg intraperitoneal, 60 min after administration
[11] = 6.25 mg/kg once a day for 3 days
[12] = 12.5 mg/kg once a day for 3 days
[13] = 10 mg/kg gavage once a day for 3 days, 1 h after inflammation
[14] = 10 mg/kg gavage once a day for 3 days, 2 h after inflammation
[15] = 10 mg/kg gavage once a day for 3 days, 3 h after inflammation
[16] = 10 mg/kg gavage once a day for 3 days, 4 h after inflammation
[17] = 20 mg/kg gavage once a day for 3 days, 1 h after inflammation
[18] = 20 mg/kg gavage once a day for 3 days, 2 h after inflammation
[19] = 20 mg/kg gavage once a day for 3 days, 3 h after inflammation
[20] = 20 mg/kg gavage once a day for 3 days, 4 h after inflammation
[21] = 40 mg/kg gavage once a day for 3 days, 1 h after inflammation
[22] = 40 mg/kg gavage once a day for 3 days, 2 h after inflammation
[23] = 40 mg/kg gavage once a day for 3 days, 3 h after inflammation
[24] = 40 mg/kg gavage once a day for 3 days, 4 h after inflammation
[25] = 25 mg/kg gavage once a day for 3 days
[26] = 50 mg/kg gavage once a day for 3 days
[27] = 100 mg/kg gavage once a day for 3 days
[28] = 200 mg/kg gavage once a day for 3 days

SMILES | Percentage increase in pain threshold (%) (hot plate pain in mice; [4]) | Percentage increase in pain threshold (%) (hot plate pain in mice; [5]) | Percentage increase in pain threshold (%) (hot plate pain in mice; [6]) | Percentage increase in pain threshold (%) (hot plate pain in mice; [7]) | Percentage increase in pain threshold (%) (hot plate pain in mice; [8]) | Percentage increase in pain threshold (%) (hot plate pain in mice; [9]) | Percentage increase in pain threshold (%) (hot plate pain in mice; [10]) | Swelling rate (%) [1, 11] | Swelling rate (%) [1, 12] | Swelling rate (%) ([1]; 25 mg/kg once a day for 3 days) | ear swelling rate versus normal group (in words) [1] | Foot swelling [2, 13] | Foot swelling [2, 14] | Foot swelling [2, 15] | Foot swelling [2, 16] | Foot swelling [2, 17] | Foot swelling [2, 18] | Foot swelling [2, 19] | Foot swelling [2, 20] | Foot swelling [2, 21] | also measured
Cc1cc(C(=O)Nc2ccc(O)cc2O)no1 [UTLOH-4e] | −17.71 ± 38.50 % | −2.76 ± 34.01% | −3.15 ± 46.73% | 15.50 ± 103.74% | −11.18 ± 85.76% | −28.73 ± 28.36 % | −16.72 ± 40.12% | 53.22 ± 28.01 % | 42.98 ± 23.60 % | 41.29 ± 21.75 % | significantly lower | 0.67 ± 0.15 mL | 0.66 ± 0.15 mL | 0.60 ± 0.16 mL | 0.44 ± 0.07 mL | 0.69 ± 0.08 mL | 0.55 ± 0.13 mL | 0.51 ± 0.09 mL | 0.38 ± 0.12 mL | 0.69 ± 0.13 mL | percentage increase in the pain threshold, hot plate (in words) (hot plate pain in mice; 25 mg/kg and 200 mg/kg, 30 minutes after administration): significantly reduce; Percentage increase in pain threshold (%) (hot plate pain in mice; 50 mg/kg intraperitoneal, 60 min after administration): 8.36 ± 84.14%; PGE2 inhibition rate (in words) (PGE2 induced by LPS; same experimental method as Table 1): very good; IC50 (NO induced by LPS; same method as Table 1, given as 10-50 μM, or <10 μM, read-out: IC50 of NO): ≤ 50 µM; dose dependence of ear swelling rate (in words) ([1]; the higher the dose, the lower the ear swelling rate): good dose-dependent; Foot swelling [2, 22]: 0.57 ± 0.17 mL; Foot swelling [2, 23]: 0.49 ± 0.15 mL; Foot swelling [2, 24]: 0.45 ± 0.16 mL; foot swelling degree compared with the normal group (in words) ([2]; low-dose group, 1 h after inflammation): significantly reduced; foot swelling degree compared with the normal group (in words) ([2]; medium-dose group and high-dose group, 1 h, 2 h and 3 h after inflammation): significantly reduced; Writhing reaction inhibition percentage (%) [3, 25]: 36.52 ± 10.08 %; Writhing reaction inhibition percentage (%) [3, 26]: 35.63 ± 17.03 %; Writhing reaction inhibition percentage (%) [3, 27]: 39.54 ± 15.18 %; Writhing reaction inhibition percentage (%) [3, 28]: 30.14 ± 17.18 %; writhing response in mice induced by acetic acid (in words) [3]: significantly inhibit
Cc1cc(C(=O)Nc2ccccc2O)no1 [UTLOH-4a] | −15.08 ± 37.87% | −16.76 ± 33.81% | −6.95 ± 41.45% | −19.99 ± 38.23 % | −34.23 ± 39.23 % | −30.12 ± 27.69 % | −29.65 ± 24.62 % | 49.77 ± 22.15 % | 50.59 ± 21.52 % | 49.87 ± 16.44 % | significantly lower | 0.50 ± 0.08 mL | 0.79 ± 0.07 mL | 0.63 ± 0.13 mL | 0.47 ± 0.13 mL | 0.55 ± 0.11 mL | 0.79 ± 0.14 mL | 0.64 ± 0.15 mL | 0.48 ± 0.12 mL | 0.65 ± 0.18 mL | percentage increase in the pain threshold, hot plate (in words) (hot plate pain in mice; 100 mg/kg and 200 mg/kg, 30 and 60 minutes after administration): significantly reduce; PGE2 inhibition (%) (PGE2 induced by LPS; RAW 264.7 cells, LPS 100 ng/mL, overnight, test concentration not given): 98.5%; inhibition on PGE2 compared to leflunomide (in words) (PGE2 induced by LPS; compared to leflunomide): stronger; IC50 (NO induced by LPS; RAW 264.7 cells, LPS 100 ng/mL, overnight, read-out: NO IC50 (μM), class): < 10 µM; IC50 (NO induced by LPS; RAW 264.7 cells, LPS 100 ng/mL, overnight, read-out: NO IC50 (μM), value in brackets): 1.4 µM; inhibition of LPS-induced NO compared with leflunomide and teriflunomide (in words) (NO induced by LPS; compared with leflunomide and teriflunomide): more strongly; Foot swelling [2, 22]: 0.77 ± 0.11 mL; Foot swelling [2, 23]: 0.57 ± 0.15 mL; Foot swelling [2, 24]: 0.48 ± 0.12 mL; foot swelling compared with the normal group (in words) ([2]; low, medium- and high-dose group, 1 h after inflammation): significantly reduce; Writhing reaction inhibition percentage (%) [3, 25]: 21.63 ± 29.24 %; Writhing reaction inhibition percentage (%) [3, 26]: 24.26 ± 10.11 %; Writhing reaction inhibition percentage (%) [3, 27]: 28.48 ± 15.74 %; Writhing reaction inhibition percentage (%) [3, 28]: 23.05 ± 10.08 %; writhing response in mice induced by acetic acid (in words) [3]: significantly inhibit
